Results as given in patent US20180147196A1, “PYRIDIN-3-YL ACETIC ACID DERIVATIVES AS INHIBITORS OF HUMAN IMMUNODEFICIENCY VIRUS REPLICATION” (priority 2015, published 2018).
Where two headings read alike, the source gives them in different places.

Test system: NL-RLuc virus
Assay: Inhibition of HIV replication (NL-RLuc virus in MT-2 cells, luciferase readout)
Type: cell-based
Conditions: Human immunodeficiency virus 1, MT2, 120 h
Source text: Inhibition of HIV replication: A recombinant NL-RLuc proviral clone was constructed in which a section of the nef gene from NL4-3 was replaced with the Renilla Luciferase gene. This virus is fully infectious and can undergo multiple cycles of replication in cell culture. In addition, the luciferous reporter provides a simple and easy method for quantitating the extent of virus growth and consequently, the antiviral activity of test compounds. The plasmid pNLRLuc contains the proviral NL-Rluc DNA cloned into pUC18 at the Pvull site. The NL-RLuc virus was prepared by transfection of 293T cells with the plasmid pNLRLuc. Transfections were performed using the LipofectAMINE PLUS kit from Invitrogen (Carlsbad, Calif.) according to the manufacturer and the virus generated was titered in MT-2 cells. For susceptibility analyses, the titrated virus was used to infect MT-2 cells in the presence of compound, and after 5 days of incubation, cells were processed and quantitated for virus growth by the amount of expressed luciferase. Assay media was RPMI 1640 supplemented with 10% heat inactivated fetal bovine serum (FBS), 100 units/ml penicillin G/100 units/ml streptomycin, 10 mM HEPES buffer pH 7.55 and 2 mM L-glutamine. The results from at least 2 experiments were used to calculate the EC50 values. Luciferase was quantitated using the Dual Luciferase kit from Promega (Madison, Wis.). Susceptibility of viruses to compounds was determined by incubation in the presence of serial dilutions of the compound. The 50% effective concentration (EC50) was calculated by using the exponential form of the median effect equation where (Fa)=1/[1+(ED50/drug conc.)^m] (Johnson V A, Byington R T. Infectivity Assay. In Techniques in HIV Research. ed. Aldovini A, Walker BD. 71-76. New York: Stockton Press.1990). Activity equal to A refers to a compound having an EC50<100 nM, while B and C denote compounds having an EC50 between 100 nM and 1 uM (B) or >1 uM (C).

| SMILES | EC50 (read-out: Activity) | EC50 (read-out: EC50 μM) |
| --- | --- | --- |
| Cc1cc(N2CCC(C)(C)CC2)c([C@H](OC(C)(C)C)C(=O)O)c(C)n1 [Example 27, (S)-2-(tert-Butoxy)-2-(4-(4,4-dimethylpiperidin-1-yl)-2,6-dimethylpyridin-3-yl)acetic acid] | > 1 µM | – |
| C=Cc1c(C)nc(C)c([C@H](OC(C)(C)C)C(=O)O)c1N1CCC(C)(C)CC1 [Example 28, (S)-2-(tert-Butoxy)-2-(4-(4,4-dimethylpiperidin-1-yl)-2,6-dimethyl-5-vinylpyridin-3-yl)acetic acid] | 0.1 to 1 µM | – |
| CCc1c(C)nc(C)c([C@H](OC(C)(C)C)C(=O)O)c1N1CCC(C)(C)CC1 [Example 29, (S)-2-(tert-Butoxy)-2-(4-(4,4-dimethylpiperidin-1-yl)-5-ethyl-2,6-dimethylpyridin-3-yl)acetic acid] | < 0.1 µM | 0.068 µM |
| C/C=C/c1c(C)nc(C)c([C@H](OC(C)(C)C)C(=O)O)c1N1CCC(C)(C)CC1 [Example 30, (S,E)-2-(tert-Butoxy)-2-(4-(4,4-dimethylpiperidin-1-yl)-2,6-dimethyl-5-(prop-1-en-1-yl)pyridin-3-yl)acetic acid] | 0.1 to 1 µM | – |
| Cc1nc(C)c([C@H](OC(C)(C)C)C(=O)O)c(N2CCC(C)(C)CC2)c1C1CC1 [Example 31, (S)-2-(tert-Butoxy)-2-(5-cyclopropyl-4-(4,4-dimethylpiperidin-1-yl)-2,6-dimethylpyridin-3-yl)acetic acid] | 0.1 to 1 µM | 0.118 µM |
| Cc1ncc(C2=CCN(CCCc3ccc(F)cc3)CC2)c(N2CCC(C)(C)CC2)c1[C@H](OC(C)(C)C)C(=O)O [Example 32, (S)-2-(tert-Butoxy)-2-(4-(4,4-dimethylpiperidin-1-yl)-1′-(3-(4-fluorophenyl)propyl)-6-methyl-1′,2′,3′,6′-tetrahydro-[3,4′-bipyridin]-5-yl)acetic acid] | < 0.1 µM | 0.002 µM |
